Experimental data as given in patent publication US20240252488A1 (KOREA RESEARCH INSTITUTE OF CHEMICAL TECHNOLOGY, priority 2020, published 2024).

How the values were obtained:
FADD−/− Jurkat cells = assay: Necroptosis inhibition assay, TNF-α-induced necroptosis (CellTiter-Glo 2.0); type: cell-based, human; conditions: TNF-α 15 ng/mL, FADD−/− Jurkat cells; for Necroptosis inhibition assay (Rescue %) 1 μM: compound 1 μM; for Necroptosis inhibition assay (Rescue %) 10 μM: compound 10 μM
How it was run: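 FADD−/− Jurkat cells preincubated 30 min at room temperature with compound at 0.1, 1 and 10 μM final, then stimulated with TNF-α (15 ng/mL final) for 20–24 h at 37 °C, 5% CO2. Viability read as ATP luminescence; cytotoxicity and necroptosis inhibition rate calculated from luminescence values.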

MLKL [1] = biological target: T1, MLKL (Homo sapiens, UniProt Q8NB16); assay: MLKL degradation assay in HepG2 cell line (western blot); type: cell-based; set-up: endogenous in cells; host or cells: HepG2 or HaCaT; conditions: cell line not given; for Degradation assay (Degradation %) 1 μM: compound 1 μM; for Degradation assay (Degradation %) 10 μM: compound 10 μM
T1 sequence (Q8NB16 1-471): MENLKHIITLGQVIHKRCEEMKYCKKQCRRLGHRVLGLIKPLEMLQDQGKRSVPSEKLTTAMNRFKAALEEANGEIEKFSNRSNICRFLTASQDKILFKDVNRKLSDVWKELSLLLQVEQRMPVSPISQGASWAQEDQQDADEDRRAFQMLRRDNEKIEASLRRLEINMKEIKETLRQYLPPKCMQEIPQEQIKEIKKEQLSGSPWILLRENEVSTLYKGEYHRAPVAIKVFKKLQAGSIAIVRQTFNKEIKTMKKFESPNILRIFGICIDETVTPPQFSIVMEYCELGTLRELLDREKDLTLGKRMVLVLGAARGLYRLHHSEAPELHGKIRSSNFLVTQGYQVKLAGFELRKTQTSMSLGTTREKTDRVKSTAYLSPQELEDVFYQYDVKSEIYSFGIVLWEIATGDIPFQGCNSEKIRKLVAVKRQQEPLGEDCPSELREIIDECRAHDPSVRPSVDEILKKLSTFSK
How it was run: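 HepG2 cells were treated 20-24 h at 37 °C with compound at 1 or 10 μM final. RIPA lysates were normalized by BCA, and 10-15 μg protein per lane was resolved by SDS-PAGE. MLKL was detected by western blot with chemiluminescence.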

MLKL [2] = biological target: T1, MLKL; assay: Measurement of binding affinity with MLKL receptor (competitive binding assay, Kd); set-up: made in house; host or cells: HEK 293 cell line (T7 phage in E. coli BL21-derived host is also described)
How it was run: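 Kd comes from a bead-based competition format: compound-dependent loss of DNA-tagged, HEK 293-expressed MLKL capture, measured as eluate kinase by qPCR. Final DMSO is 0.9%.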

Row | Compound | Degradation assay (Degradation %) 1 μM (MLKL [1]) | Degradation assay (Degradation %) 10 μM (MLKL [1]) | Kd (MLKL [2]) | Necroptosis inhibition assay (Rescue %) 1 μM (FADD−/− Jurkat cells) | Necroptosis inhibition assay (Rescue %) 10 μM (FADD−/− Jurkat cells)
1 | COc1ccc(C(=O)N2CCC(C(=O)N3CCC(CN4CCC(n5cc(-c6cnc(N)c(C(=O)O[C@@H](C(=O)Nc7ccc(F)cc7)c7ccccc7)n6)cn5)CC4)CC3)CC2)cc1N1CCC(=O)NC1=O [TDH-515, (R)-2-((4-fluorophenyl)amino)-2-oxo-1-phenylethyl 3-amino-6-(1-(1-((1-(1-(3-(2,4-dioxotetrahydropyrimidin-1(2H)-yl)-4-methoxybenzoyl)piperidine-4-carbonyl)piperidin-4-yl)methyl)piperidin-4-yl)-1H-pyrazol-4-yl)pyrazine-2-carboxylate] | 95.21% | 89.06% | 1.4 nM | 68.04% | 15.68%
2 | Nc1ncc(-c2cnn(C3CCN(CC4CCN(C(=O)Cc5cccc(NC6=CC(=O)N(C7CCC(=O)NC7=O)C6=O)c5)CC4)CC3)c2)nc1C(=O)O[C@@H](C(=O)Nc1ccc(F)cc1)c1ccccc1 (stereo partly drawn) [TDH-516, (R)-2-((4-fluorophenyl)amino)-2-oxo-1-phenylethyl 3-amino-6-(1-(1-((1-(2-(3-((1-(2,6-dioxopiperidin-3-yl)-2,5-dioxo-2,5-dihydro-1H-pyrrol-3-yl)amino)phenyl)acetyl)piperidin-4-yl)methyl)piperidin-4-yl)-1H-pyrazol-4-yl)pyrazine-2-carboxylate] | 81.44% | 77.67% | 9.7 nM | 17.46% | 5.65%
3 | Nc1ncc(-c2cnn(C3CCN(CCC4CCN(C(=O)Cc5cccc(NC6=CC(=O)N(C7CCC(=O)NC7=O)C6=O)c5)CC4)CC3)c2)nc1C(=O)O[C@@H](C(=O)Nc1ccc(F)cc1)c1ccccc1 (stereo partly drawn) [TDH-518, (R)-2-((4-fluorophenyl)amino)-2-oxo-1-phenylethyl 3-amino-6-(1-(1-(2-(1-(2-(3-((1-(2,6-dioxopiperidin-3-yl)-2,5-dioxo-2,5-dihydro-1H-pyrrol-3-yl)amino)phenyl)acetyl)piperidin-4-yl)ethyl)piperidin-4-yl)-1H-pyrazol-4-yl)pyrazine-2-carboxylate] | 89.77% | 88.59% | 4.3 nM | 12.44% | −8.57%
4 | Nc1ncc(-c2cnn(C3CCN(CC4CCN(c5cc6c(cc5F)C(=O)N(C5CCC(=O)NC5=O)C6=O)CC4)CC3)c2)nc1C(=O)O[C@@H](C(=O)Nc1ccc(F)cc1)c1ccccc1 (stereo partly drawn) [TDH-519, (R)-2-((4-fluorophenyl)amino)-2-oxo-1-phenylethyl 3-amino-6-(1-(1-((1-(2-(2,6-dioxopiperidin-3-yl)-6-fluoro-1,3-dioxoisoindolin-5-yl)piperidin-4-yl)methyl)piperidin-4-yl)-1H-pyrazol-4-yl)pyrazine-2-carboxylate] | 89.40% | 86.43% | 7.1 nM | 4.80% | 17.07%
5 | Nc1ncc(-c2cnn(C3CCN(CCC4CCN(c5cc6c(cc5F)C(=O)N(C5CCC(=O)NC5=O)C6=O)CC4)CC3)c2)nc1C(=O)O[C@@H](C(=O)Nc1ccc(F)cc1)c1ccccc1 (stereo partly drawn) [TDH-520, (R)-2-((4-fluorophenyl)amino)-2-oxo-1-phenylethyl 3-amino-6-(1-(1-(2-(1-(2-(2,6-dioxopiperidin-3-yl)-6-fluoro-1,3-dioxoisoindolin-5-yl)piperidin-4-yl)ethyl)piperidin-4-yl)-1H-pyrazol-4-yl)pyrazine-2-carboxylate] | 92.44% | 94.32% | 19 nM | 63.56% | 36.11%
6 | Nc1ncc(-c2cnn(C3CCN(CC4CCN(C5=CC(=O)N(C6CCC(=O)NC6=O)C5=O)CC4)CC3)c2)nc1C(=O)O[C@@H](C(=O)Nc1ccc(F)cc1)c1ccccc1 (stereo partly drawn) [TDH-521, (R)-2-((4-fluorophenyl)amino)-2-oxo-1-phenylethyl 3-amino-6-(1-(1-((1-(1-(2,6-dioxopiperidin-3-yl)-2,5-dioxo-2,5-dihydro-1H-pyrrol-3-yl)piperidin-4-yl)methyl)piperidin-4-yl)-1H-pyrazol-4-yl)pyrazine-2-carboxylate] | 91.54% | 78.62% | 1.5 nM | 0.16% | 1.33%

The next molecules have a lower Kd (MLKL [2]) than those just listed; values first:

Row | Degradation assay (Degradation %) 1 μM (MLKL [1]) | Degradation assay (Degradation %) 10 μM (MLKL [1]) | Kd (MLKL [2]) | Compound | Necroptosis inhibition assay (Rescue %) 1 μM (FADD−/− Jurkat cells) | Necroptosis inhibition assay (Rescue %) 10 μM (FADD−/− Jurkat cells)
7 | 93.97% | 86.64% | 0.62 nM | COc1ccc(C(=O)N2CCC(C(=O)N3CCC(CCN4CCC(n5cc(-c6cnc(N)c(C(=O)O[C@@H](C(=O)Nc7ccc(F)cc7)c7ccccc7)n6)cn5)CC4)CC3)CC2)cc1N1CCC(=O)NC1=O [TDH-517, (R)-2-((4-fluorophenyl)amino)-2-oxo-1-phenylethyl 3-amino-6-(1-(1-(2-(1-(1-(3-(2,4-dioxotetrahydropyrimidin-1(2H)-yl)-4-methoxybenzoyl)piperidine-4-carbonyl)piperidin-4-yl)ethyl)piperidin-4-yl)-1H-pyrazol-4-yl)pyrazine-2-carboxylate] | 58.11% | 10.78%
8 | 84.27% | 51.16% | 1.3 nM | Nc1ncc(-c2cnn(C3CCN(CCC4CCN(C5=CC(=O)N(C6CCC(=O)NC6=O)C5=O)CC4)CC3)c2)nc1C(=O)O[C@@H](C(=O)Nc1ccc(F)cc1)c1ccccc1 (stereo partly drawn) [TDH-522, (R)-2-((4-fluorophenyl)amino)-2-oxo-1-phenylethyl 3-amino-6-(1-(1-(2-(1-(1-(2,6-dioxopiperidin-3-yl)-2,5-dioxo-2,5-dihydro-1H-pyrrol-3-yl)piperidin-4-yl)ethyl)piperidin-4-yl)-1H-pyrazol-4-yl)pyrazine-2-carboxylate] | 21.52% | −21.15%
9 | 89.24% | 77.14% | 1 nM | Nc1ncc(-c2cnn(C3CCN(CC4CCN(C(=O)C5CCN(C6=CC(=O)N(C7CCC(=O)NC7=O)C6=O)CC5)CC4)CC3)c2)nc1C(=O)O[C@@H](C(=O)Nc1ccc(F)cc1)c1ccccc1 (stereo partly drawn) [TDH-523, (R)-2-((4-fluorophenyl)amino)-2-oxo-1-phenylethyl 3-amino-6-(1-(1-((1-(1-(1-(2,6-dioxopiperidin-3-yl)-2,5-dioxo-2,5-dihydro-1H-pyrrol-3-yl)piperidine-4-carbonyl)piperidin-4-yl)methyl)piperidin-4-yl)-1H-pyrazol-4-yl)pyrazine-2-carboxylate] | 35.34% | 16.27%
10 | 89.35% | 83.06% | 0.99 nM | Nc1ncc(-c2cnn(C3CCN(CCC4CCN(C(=O)C5CCN(C6=CC(=O)N(C7CCC(=O)NC7=O)C6=O)CC5)CC4)CC3)c2)nc1C(=O)O[C@@H](C(=O)Nc1ccc(F)cc1)c1ccccc1 (stereo partly drawn) [TDH-524, (R)-2-((4-fluorophenyl)amino)-2-oxo-1-phenylethyl 3-amino-6-(1-(1-(2-(1-(1-(1-(2,6-dioxopiperidin-3-yl)-2,5-dioxo-2,5-dihydro-1H-pyrrol-3-yl)piperidine-4-carbonyl)piperidin-4-yl)ethyl)piperidin-4-yl)-1H-pyrazol-4-yl)pyrazine-2-carboxylate] | 48.61% | 15.69%
11 | 67.25% | 81.42% | 1.2 nM | Nc1ncc(-c2cnn(C3CCN(CCCN4CCN(C(=O)C5CCN(C6=CC(=O)N(C7CCC(=O)NC7=O)C6=O)CC5)CC4)CC3)c2)nc1C(=O)O[C@@H](C(=O)Nc1ccc(F)cc1)c1ccccc1 (stereo partly drawn) [TDH-526, (R)-2-((4-fluorophenyl)amino)-2-oxo-1-phenylethyl 3-amino-6-(1-(1-(3-(4-(1-(1-(2,6-dioxopiperidin-3-yl)-2,5-dioxo-2,5-dihydro-1H-pyrrol-3-yl)piperidine-4-carbonyl)piperazin-1-yl)propyl)piperidin-4-yl)-1H-pyrazol-4-yl)pyrazine-2-carboxylate] | 57.37% | 22.77%
